These results are taken from ChEMBL document CHEMBL1135159, “Pyrazolo[3,4-d]pyrimidines containing an extended 3-substituent as potent inhibitors of Lck -- a selectivity insight” (Bioorg Med Chem Lett, 2002).

Where only a bound is given, the exact number is not on record here.

The species named for one data set is Homo sapiens. Nature of the data set: Inhibition of alpha-CD3 mAb induced IL-2 production in human whole blood. The data set is classed as functional, organism-based.
Data set [1] has as its target T1, Vascular endothelial growth factor receptor 2 (Homo sapiens, UniProt P35968). Nature of the data set: Inhibition of human VEGF-receptor 2 (kdr) kinase.
The test system of data set [2] is Mus musculus. The data set is described as follows: Tested in vivo for inhibition ofTCR stimulated (alpha-CD3 mAb) IL-2 production in mice after oral dosing for 18 hr. The data set is classed as functional. More on the design: concentration or dose not given beside the values.
Data set [3] concerns Mus musculus. Nature of the data set: Tested in vivo for inhibition ofTCR stimulated (alpha-CD3 mAb) IL-2 production in mice after oral dosing. The data set is classed as functional.
For data set [4], the system named is Mus musculus. Nature of the data set: Tested in vivo for inhibition ofTCR stimulated (alpha-CD3 mAb) IL-2 production in mice after oral dosing for 8 hr. It counts as functional. More on the design: concentration or dose not given beside the values.
The target in data set [5] is T1, Vascular endothelial growth factor receptor 2. Nature of the data set: Inhibition of Vascular endothelial growth factor receptor 2.
Data set [6] in a line: Compound was evaluated for pharmacokinetic parameter percent bioavailability at 18 h. The data set is classed as ADME, organism-based. The note with it: rat, in vivo.
The test system of data set [7] is Rattus norvegicus. Nature of the data set: In vivo clearance after 5 mg/kg dose. The data set is classed as ADME, organism-based. Also noted: dose 5 mg/kg.
Data set [8] can be described thus: Compound was evaluated for pharmacokinetic parameter maximum time period. The data set is classed as ADME, organism-based. The note with it: rat, in vivo.
A short description of data set [9]: Compound was evaluated for pharmacokinetic parameter percent bioavailability at 8 h. It counts as ADME, organism-based. The note with it: rat, in vivo.
Data set [10] can be described thus: Compound was evaluated for pharmacokinetic parameter volume of distribution. It counts as ADME, organism-based. The note with it: rat, in vivo.
Data set [11] concerns the target Tyrosine-protein kinase Lck (Homo sapiens, UniProt P06239). Nature of the data set: Inhibition of human p56 Lck tyrosine kinase.
For data set [12], the species on record is Rattus norvegicus. Nature of the data set: Compound was evaluated for pharmacokinetic parameter maximum plasma concentration. The data set is classed as ADME, organism-based. The note with it: in vivo.
Data set [13] deals with Proto-oncogene tyrosine-protein kinase Src (Homo sapiens, UniProt P12931). The data set is described as follows: Inhibition of Src protein tyrosine kinase.
In the next data set the target is Angiopoietin-1 receptor (Homo sapiens, UniProt Q02763). The data set is described as follows: Inhibition of TIE-2 kinase.
Chain of Angiopoietin-1 receptor (Q02763 whole entry): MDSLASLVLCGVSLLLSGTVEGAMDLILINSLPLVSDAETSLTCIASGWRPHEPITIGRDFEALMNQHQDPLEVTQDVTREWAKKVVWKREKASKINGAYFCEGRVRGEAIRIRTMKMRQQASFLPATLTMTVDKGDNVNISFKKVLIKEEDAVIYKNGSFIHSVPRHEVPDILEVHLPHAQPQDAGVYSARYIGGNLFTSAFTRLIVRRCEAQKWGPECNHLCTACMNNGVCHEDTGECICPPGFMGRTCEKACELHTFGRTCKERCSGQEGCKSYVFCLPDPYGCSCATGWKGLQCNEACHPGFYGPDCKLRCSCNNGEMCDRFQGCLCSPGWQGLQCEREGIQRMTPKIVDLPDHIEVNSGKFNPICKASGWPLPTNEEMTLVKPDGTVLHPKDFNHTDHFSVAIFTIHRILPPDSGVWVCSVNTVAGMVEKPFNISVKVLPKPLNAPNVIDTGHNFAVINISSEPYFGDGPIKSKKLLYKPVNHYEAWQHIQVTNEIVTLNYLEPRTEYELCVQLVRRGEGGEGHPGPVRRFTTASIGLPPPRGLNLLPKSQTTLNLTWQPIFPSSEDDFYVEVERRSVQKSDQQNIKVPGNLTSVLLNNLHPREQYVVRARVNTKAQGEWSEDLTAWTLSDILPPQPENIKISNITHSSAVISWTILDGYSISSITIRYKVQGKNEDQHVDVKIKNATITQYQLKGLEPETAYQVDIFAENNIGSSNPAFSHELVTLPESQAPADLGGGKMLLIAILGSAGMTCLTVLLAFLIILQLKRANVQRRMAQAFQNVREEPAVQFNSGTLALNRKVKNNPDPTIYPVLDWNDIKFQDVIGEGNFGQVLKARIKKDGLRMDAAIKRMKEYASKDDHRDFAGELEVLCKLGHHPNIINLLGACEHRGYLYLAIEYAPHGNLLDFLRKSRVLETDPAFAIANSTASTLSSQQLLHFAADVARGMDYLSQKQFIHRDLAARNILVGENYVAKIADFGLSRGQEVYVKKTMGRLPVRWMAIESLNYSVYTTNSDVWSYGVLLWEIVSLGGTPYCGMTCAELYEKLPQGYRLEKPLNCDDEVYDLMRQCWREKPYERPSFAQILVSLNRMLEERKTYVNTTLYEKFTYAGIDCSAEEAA

T1 sequence (P35968 whole entry): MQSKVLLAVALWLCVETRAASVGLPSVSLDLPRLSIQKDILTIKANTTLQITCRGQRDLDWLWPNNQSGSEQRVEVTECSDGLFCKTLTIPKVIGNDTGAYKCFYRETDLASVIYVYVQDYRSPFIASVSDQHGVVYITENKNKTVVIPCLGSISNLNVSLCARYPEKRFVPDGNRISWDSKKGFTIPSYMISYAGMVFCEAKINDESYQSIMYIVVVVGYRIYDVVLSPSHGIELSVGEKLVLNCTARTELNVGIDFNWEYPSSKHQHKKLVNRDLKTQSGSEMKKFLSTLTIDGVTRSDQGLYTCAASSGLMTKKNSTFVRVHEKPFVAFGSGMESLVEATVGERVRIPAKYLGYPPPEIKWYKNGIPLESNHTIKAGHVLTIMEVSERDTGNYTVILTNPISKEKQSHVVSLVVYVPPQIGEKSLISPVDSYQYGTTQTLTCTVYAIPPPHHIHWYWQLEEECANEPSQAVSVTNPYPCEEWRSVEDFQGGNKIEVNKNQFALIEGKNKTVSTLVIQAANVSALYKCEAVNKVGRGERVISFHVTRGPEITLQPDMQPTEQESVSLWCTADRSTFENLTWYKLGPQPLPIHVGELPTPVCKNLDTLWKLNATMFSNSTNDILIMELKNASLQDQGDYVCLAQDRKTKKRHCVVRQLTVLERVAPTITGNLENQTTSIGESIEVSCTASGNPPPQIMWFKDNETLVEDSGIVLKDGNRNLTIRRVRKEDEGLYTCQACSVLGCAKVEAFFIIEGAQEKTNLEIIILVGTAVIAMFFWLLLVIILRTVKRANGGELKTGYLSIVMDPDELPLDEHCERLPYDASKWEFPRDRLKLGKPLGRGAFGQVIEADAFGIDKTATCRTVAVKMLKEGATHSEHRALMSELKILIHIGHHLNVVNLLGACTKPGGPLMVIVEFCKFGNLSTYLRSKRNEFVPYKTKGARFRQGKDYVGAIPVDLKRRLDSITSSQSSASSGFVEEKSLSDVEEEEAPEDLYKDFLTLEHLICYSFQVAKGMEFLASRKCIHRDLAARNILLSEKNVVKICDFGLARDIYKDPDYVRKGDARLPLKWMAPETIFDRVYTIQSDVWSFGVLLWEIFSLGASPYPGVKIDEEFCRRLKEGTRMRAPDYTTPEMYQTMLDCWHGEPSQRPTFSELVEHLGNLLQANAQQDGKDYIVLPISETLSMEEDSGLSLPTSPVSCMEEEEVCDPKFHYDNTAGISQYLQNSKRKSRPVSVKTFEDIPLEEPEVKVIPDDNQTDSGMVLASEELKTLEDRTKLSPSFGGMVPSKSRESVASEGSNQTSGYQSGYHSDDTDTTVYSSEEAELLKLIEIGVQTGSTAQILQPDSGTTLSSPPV
Chain of Tyrosine-protein kinase Lck (P06239 whole entry): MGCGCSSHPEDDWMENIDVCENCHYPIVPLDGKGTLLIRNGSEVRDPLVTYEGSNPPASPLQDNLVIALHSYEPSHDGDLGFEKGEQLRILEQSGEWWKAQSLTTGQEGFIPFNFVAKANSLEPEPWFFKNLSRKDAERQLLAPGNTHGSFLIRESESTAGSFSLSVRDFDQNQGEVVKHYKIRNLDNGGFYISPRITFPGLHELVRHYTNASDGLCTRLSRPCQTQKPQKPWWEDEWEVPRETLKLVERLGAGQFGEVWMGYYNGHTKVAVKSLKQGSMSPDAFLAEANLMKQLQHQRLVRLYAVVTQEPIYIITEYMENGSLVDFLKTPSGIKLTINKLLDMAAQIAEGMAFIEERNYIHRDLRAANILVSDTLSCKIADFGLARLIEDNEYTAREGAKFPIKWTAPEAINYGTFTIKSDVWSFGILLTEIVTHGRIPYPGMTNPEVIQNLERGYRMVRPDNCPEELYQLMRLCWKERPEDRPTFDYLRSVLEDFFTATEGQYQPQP
Chain of Proto-oncogene tyrosine-protein kinase Src (P12931 2-536 limits assumed): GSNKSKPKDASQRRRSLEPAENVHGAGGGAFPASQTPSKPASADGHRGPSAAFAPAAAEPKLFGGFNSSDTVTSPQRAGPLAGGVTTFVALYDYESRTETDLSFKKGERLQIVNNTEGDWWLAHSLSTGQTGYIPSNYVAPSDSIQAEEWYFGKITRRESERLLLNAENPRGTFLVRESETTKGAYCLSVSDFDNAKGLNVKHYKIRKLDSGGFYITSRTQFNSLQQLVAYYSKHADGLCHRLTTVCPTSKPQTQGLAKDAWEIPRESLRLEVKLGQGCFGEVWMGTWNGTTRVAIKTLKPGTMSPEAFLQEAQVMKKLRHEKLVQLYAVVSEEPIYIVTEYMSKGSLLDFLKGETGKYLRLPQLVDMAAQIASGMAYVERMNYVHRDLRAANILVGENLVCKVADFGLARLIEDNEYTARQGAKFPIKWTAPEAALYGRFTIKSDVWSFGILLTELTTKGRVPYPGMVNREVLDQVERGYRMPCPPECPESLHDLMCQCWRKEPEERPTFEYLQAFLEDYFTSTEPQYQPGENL

The IC50 is the midpoint of a concentration-inhibition curve. The term Inhibition denotes how much of the control response was suppressed. In general, ED50 refers to the dose that gives a 50% effect, or the effect in half of the subjects. Regarding `COc1cc(-c2nn([C@H]3CC[C@H](N4CCN(C)CC4)CC3)c3ncnc(N)c23)ccc1NC(=O)CC(C)(C)c1ccccc1`, the half-maximal inhibitory concentration (IC50) in the data set filed under Homo sapiens amounted to 8 nM; in data set [1], 34.6 µM. The Inhibition was found to be 22% in the data set with Mus musculus [2] and 98% with Mus musculus [4]. This compound registered an ED50 in the data set with Mus musculus [3] of 2 mg/kg. Besides, the ED90 with Mus musculus [3] was 12.5 mg/kg.
In the case of `COc1cc(-c2nn([C@H]3CC[C@H](N4CCN(C)CC4)CC3)c3ncnc(N)c23)ccc1NC(=O)CCc1ccccc1`, the figures for the IC50 (in the data set filed under Homo sapiens; in data set [1]) were 38 nM and above 50 µM, respectively. The Inhibition in the data set with Mus musculus [2] is given as below 10%; in the data set on Mus musculus [4], 63%. Besides, the ED50 in the data set with Mus musculus [3] was found to be 5 mg/kg. This compound also registered an ED90 in the data set on Mus musculus [3] of 30 mg/kg.
In the case of `COc1cc(-c2nn([C@H]3CC[C@H](N4CCN(C)CC4)CC3)c3ncnc(N)c23)ccc1NC(=O)c1ccccc1`, the IC50 in the data set listed under Homo sapiens was 50 nM; in [1] it was above 50 µM. For the same compound, the Inhibition is recorded as below 10% in the data set with Mus musculus [2] and 37% with Mus musculus [4]. Besides, the ED50 with Mus musculus [3] turned out to be 9 mg/kg. For the same compound, the ED90 with Mus musculus [3] was 23 mg/kg.
The compound `COc1cc(-c2nn([C@H]3CC[C@H](N4CCN(C)CC4)CC3)c3ncnc(N)c23)ccc1NS(=O)(=O)c1ccccc1` had an IC50 in [1] above 50 µM.
Same read-out and setting: with `COc1cc(Cc2nn([C@H]3CC[C@H](N4CCN(C)CC4)CC3)c3ncnc(N)c23)ccc1NC(=O)[C@@H]1C[C@H]1c1ccccc1` the figure was above 50 µM.
On the same count and under the same terms, to `COc1cc(-c2nn([C@H]3CC[C@H](N4CCN(C)CC4)CC3)c3ncnc(N)c23)ccc1NC(=O)C(C)(C)Cc1ccccc1` belongs above 50 µM.
`COc1cc(-c2nn([C@H]3CC[C@H](N4CCN(C)CC4)CC3)c3ncnc(N)c23)ccc1NC(=O)c1cc2ccccc2o1`: the IC50 in the data set filed under Homo sapiens was 6 nM; in data set [1], above 50 µM. For the same compound, the figures for the Inhibition in the data set on Mus musculus [2] and in the data set on Mus musculus [4] were below 10% and 48%, respectively. Besides, in the data set with Mus musculus [3], the ED50 is 8.5 mg/kg. Further, the ED90 in the data set with Mus musculus [3] amounted to 12.5 mg/kg.
The bioavailability is the share of a dose that reaches the circulation, judged against a reference dose that is usually intravenous. A word on the Tmax: it is the time from dosing to the highest level. Broadly, the half-life is how long it takes for the measured level to halve. As usually defined, the Vd is the apparent volume that relates the amount in the body to the concentration in plasma or blood. As for `CN1CCN([C@H]2CC[C@H](n3nc(-c4ccc(Oc5ccccc5)cc4)c4c(N)ncnc43)CC2)CC1`, the IC50 in data set [5] was 5.32 µM; in data set [11], 40 nM. The bioavailability in data set [6] amounted to 69%. Besides, in the data set with Rattus norvegicus [7], the Clp is 1.2 L/h/kg. Further, the figures for the Inhibition with Mus musculus [2] and in the data set with Mus musculus [4] were 49% and 84%, respectively. Besides, the 50% effect level in the data set on Mus musculus [3] (ED50) was put at a dose of 1.5 mg/kg. Besides, the ED90 with Mus musculus [3] is 6 mg/kg. Further, the Tmax in [8] stood at 1.5 h. In data set [9], this compound gave a half-life of 312 min. Besides, the Vd in [10] turned out to be 9.6 L/kg. Also, in the data set listed under Rattus norvegicus [12], the Cmax amounted to 0.62 uM l-1.
As to `CN1CCN([C@H]2CC[C@H](n3cc(-c4ccc(Oc5ccccc5)cc4)c4c(N)ncnc43)CC2)CC1`, the IC50 in data set [13] turned out to be 42 nM; at Angiopoietin-1 receptor, 250 nM; in data set [11], 15 nM. In the data set on Mus musculus [3], this compound showed an ED50 of 2.5 mg/kg.
In the case of `COc1cc(-c2nn([C@H]3CC[C@H](N4CCN(C)CC4)CC3)c3ncnc(N)c23)ccc1NCc1ccccc1`, the results for the IC50 in data set [5] and in data set [11] were above 50 µM and 55 nM, respectively.
`COc1cc(-c2nn([C@H]3CC[C@H](N4CCN(C)CC4)CC3)c3ncnc(N)c23)ccc1NC(=O)Nc1ccccc1` registered an IC50 in data set [1] of 0.263 µM.
On the same count and under the same terms, to `CN1CCN([C@H]2CC[C@H](n3nc(-c4ccc(NCc5cc6ccccc6[nH]5)cc4)c4c(N)ncnc43)CC2)CC1` belongs 0.435 µM.
In turn, `CN1CCN([C@H]2CC[C@H](n3nc(-c4ccc(C(=O)c5ccccc5)cc4)c4c(N)ncnc43)CC2)CC1` returned an IC50 in data set [1] above 50 µM.
For `CN1CCN([C@H]2CC[C@H](n3nc(-c4ccc(Nc5ccccc5)cc4)c4c(N)ncnc43)CC2)CC1`, the IC50 in the data set filed under Homo sapiens is 135 nM; in data set [1], 3.81 µM. Further, the Inhibition with Mus musculus [2] is reported as below 10%; with Mus musculus [4], 95%. In the data set with Mus musculus [3], this compound registered an ED50 of 2.5 mg/kg. The same compound displayed an ED90 with Mus musculus [3] of 10.7 mg/kg.
For `COc1cc(-c2nn([C@H]3CC[C@H](N4CCN(C)CC4)CC3)c3ncnc(N)c23)ccc1NC(=O)OCc1ccccc1`, the IC50 in the data set listed under Homo sapiens came to 2 nM; in data set [1], 34.2 µM. Moreover, the Inhibition with Mus musculus [2] is on record as 14%; in the data set with Mus musculus [4], 51%. In the data set with Mus musculus [3], the median effective dose (ED50) came out at 3 mg/kg. In addition, in the data set with Mus musculus [3], the ED90 was 14 mg/kg.
